Tests used:
[1] = target: T1, immobilised HLADH (Equus caballus, UniProt P00327); test: Example 5: inhibition of immobilised HLADH by aldehydes; type: biochemical, horse; conditions: (b) immobilised HLADH; assay using the aldehyde used in pre-incubation
T1 construct: whether it is derived from yeast (i.e. is a YADH) from horse liver (HLADH), or from another source; from tissue; host or cells: horse liver
Description: (§1) In order to test the inhibition of the immobilised enzyme by aldehyde, the beads (50 - 60 µl) were incubated with trans-cinnamaldehyde ([…]; 10 mM) and a coupling buffer (3.95 ml; pH 7.0). This gave a final aldehyde concentration of 2 mM and a protein concentration of 0.16 mg/ml. The reaction mixture was incubated at 22 (+2)°C for 60 min with continuous gentle agitation. The immobilised enzyme was washed three times in coupling buffer (10 ml) at 22 (+2)C and resuspended in eight times of its original volume in coupling buffer. Enzyme activity was assayed immediately after washing using trans-cinnamaldehyde (5 mM) as assay substrate with a protein concentration of 0.2 mg/ml.
Horse liver alcohol dehydrogenase or HLADH (50 mg; 1 U/mg) was reacted with swelled CNBr-activated Sepharose 4B (Registered Trade Mark) beads (0.8 g). Approximately 90% of the enzyme was thus immobilised.
The inhibition of the immobilised enzyme (prepared as in Example 4) by aldehydes was tested and compared with the soluble enzyme as described in Example 3. The results were as follows:
(a) assaying using trans-cinnamaldehyde following pre-incubation using a different aldehyde
(b) assaying using the aldehyde used in pre-incubation

[2] = target: T2, Horse liver alcohol dehydrogenase or HLADH (Equus caballus, UniProt P00327); test: Example 4: activity of immobilised HLADH in the reduction of aldehydes (NADH absorbance decrease at 380 nm); type: biochemical; conditions: aldehyde as substrate (2mM), NADH (1mM), pH 7.0, 22 °C, initial rate over 2 minutes
T2 construct: whether it is derived from yeast (i.e. is a YADH) from horse liver (HLADH), or from another source; from tissue; host or cells: horse liver
Description: Horse liver alcohol dehydrogenase or HLADH (50 mg; 1 U/mg) was reacted with swelled CNBr-activated Sepharose 4B (Registered Trade Mark) beads (0.8 g).
The activity of the immobilised enzyme in the reduction of aldehydes to alcohols was determined in coupling buffer (0.1 M; pH 7.0) at 22 (+2)°C as the initial rate of decrease in absorbance at 380 nm over a 2 minute time period using NADH (lmM) and aldehyde (2mM).

[3] = target: T3, YADH (Saccharomyces cerevisiae, UniProt P00330); test: Inhibition/inactivation of YADH in solution by incubation with aldehyde; type: biochemical, yeast
T3 sequence (P00330 1-348): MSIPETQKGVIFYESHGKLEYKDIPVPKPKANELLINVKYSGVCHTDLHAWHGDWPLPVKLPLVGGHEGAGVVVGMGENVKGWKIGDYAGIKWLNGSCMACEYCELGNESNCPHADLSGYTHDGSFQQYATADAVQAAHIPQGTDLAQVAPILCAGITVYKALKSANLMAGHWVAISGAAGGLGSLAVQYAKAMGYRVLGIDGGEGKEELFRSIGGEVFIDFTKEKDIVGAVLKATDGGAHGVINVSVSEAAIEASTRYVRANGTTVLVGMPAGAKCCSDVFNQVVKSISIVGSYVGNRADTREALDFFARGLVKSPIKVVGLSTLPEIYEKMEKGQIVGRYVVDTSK
Excerpt: The enzymatic reduction of aldehydes may, however, present a serious problem due to the aldehyde, whilst being a substrate for the enzyme, being a potent irreversible inhibitor.

[4] = target: T3, YADH; test: Example 3 (ii): inhibition of soluble YADH after pre-incubation with aldehyde; type: biochemical, yeast; conditions: soluble enzyme; 2 mM aldehyde, 60 min, 22 °C, then dialysis; assayed with trans-cinnamaldehyde (5 mM)
Description: By way of comparison, stock enzyme solution (800 µ1; 0.2 mg protein/ml) was incubated with cinnamaldehyde (200 µ1; 10 mM). This also gave a final aldehyde concentration of 2 mM and a protein concentration of 0.16 mg/ml. The reaction mixture was incubated at 22 (+2)^OC for 60 min with continuous gentle agitation. After incubation, the soluble enzyme was dialysed against coupling buffer (30 ml; 0.lM) at 4°C for 21/2 hours with one change of buffer. Enzyme activity was assayed immediately after dialysis using trans-cinnamaldehyde (5 mM) as assay substrate with a protein concentration of 0.2 mg/ml.

[5] = target: T3, YADH; test: Example 3 (i): inhibition of immobilised YADH after pre-incubation with aldehyde; type: biochemical, yeast; conditions: immobilised enzyme; 2 mM aldehyde, 60 min, 22 °C, then washing; assayed with trans-cinnamaldehyde (5 mM)
Description: YADH (15 mg; 200U/mg) was reacted with swelled CNBr-activated Sepharose 4B (Registered Trade Mark) beads (0.4 g; ex Pharmacia) and coupling carried out in sodium phosphate buffer (0.1M; pH 7.0) containing KCl (0.5 M) for 18 hours at 4°C. Approximately 90% of the enzyme was thus immobilised.
as §1

[6] = solution of the enzyme incubated with 5 mM aldehyde

T2 sequence (P00327 whole entry): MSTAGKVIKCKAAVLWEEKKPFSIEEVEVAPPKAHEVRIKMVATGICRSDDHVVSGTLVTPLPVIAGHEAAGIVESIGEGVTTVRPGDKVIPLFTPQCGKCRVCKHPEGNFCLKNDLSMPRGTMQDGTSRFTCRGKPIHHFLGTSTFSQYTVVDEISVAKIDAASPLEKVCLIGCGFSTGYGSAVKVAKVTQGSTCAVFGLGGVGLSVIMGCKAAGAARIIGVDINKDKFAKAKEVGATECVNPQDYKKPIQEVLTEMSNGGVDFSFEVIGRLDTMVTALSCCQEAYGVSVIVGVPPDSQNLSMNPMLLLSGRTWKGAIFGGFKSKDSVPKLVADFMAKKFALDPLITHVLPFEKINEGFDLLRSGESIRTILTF
T1 sequence (P00327 whole entry): as above

| SMILES | activity [2] | further results |
| --- | --- | --- |
| CC(C)=CCCC(C)CC=O (centres unmarked) [citronellal] | 0.75 micromoles NADH/min/mg protein | inhibition at 2000 µM [1]: 11% |
| O=Cc1ccc2c(c1)OCO2 [piperonaldehyde] | 1.47 micromoles NADH/min/mg protein |  |
| CC(C)c1ccc(C=O)cc1 [p-cuminaldehyde] | 0.94 micromoles NADH/min/mg protein |  |
| O=Cc1ccccc1O [salicylaldehyde] | 0.57 micromoles NADH/min/mg protein |  |
| OCC=Cc1ccccc1 [cinnamyl alcohol] |  | inhibitory effect ([3]; even at 8 mM): no inhibitory effect |
| O=CC=Cc1ccccc1 [cinnamaldehyde] |  | time to 50% inhibition [3, 6]: 12 min; time to total inhibition [3, 6]: about 30 minutes; inhibition at 2000 µM [4]: 90% |
| CC(C)=CCCC(C)=CC=O [citral] | 0.91 micromoles NADH/min/mg protein |  |
| O=C/C=C/c1ccccc1 [trans-cinnamaldehyde] | 1.36 micromoles NADH/min/mg protein | inhibition at 2000 µM [5]: 50% |
| COc1ccc(C=O)cc1 [p-anisaldehyde] | 1.55 micromoles NADH/min/mg protein |  |
| O=Cc1ccc(O)cc1 [p-hydroxybenzaldehyde] | 0.94 micromoles NADH/min/mg protein |  |

Reference: patent EP0186365A2, “Preparation of alcohols” (UNITED KINGDOM ATOMIC ENERGY AUTHORITY, priority 1984, dated 1986)
